Measured values taken from the NIST ThermoML archive (doi:10.1016/j.jct.2006.07.002).
Numbers after ± are expanded uncertainties.

Legend:
[1] = 293.15 K; 101.33 kPa; Liquid
[2] = Boiling temperature at pressure P; conditions: Liquid, Distillation
[3] = refractive index (Na D-line) (dimensionless); conditions: 293.15 K; 101.33 kPa; Liquid; Standard Abbe refractometry

Row | mass density [1] | Boiling temperature at pressure P ([2]; 1.733 kPa) | refractive index [3] | Boiling temperature at pressure P ([2]; 101.33 kPa) | SMILES
1 | 1061.72 ± 0.67 kg/m3 | 115 ± 1 °C | 1.42825 ± 0.0007 | – | COC(=O)CCCCC(=O)OC [dimethyl 1,6-hexanedioate]
2 | 952.8 ± 0.58 kg/m3 | – | 1.3975 ± 0.0007 | – | CCCC(=O)O [butanoic acid]
3 | 1087.67 ± 0.76 kg/m3 | – | 1.42454 ± 0.0007 | 214.2 ± 0.2 °C | COC(=O)CCCC(=O)OC [dimethyl pentanedioate]
4 | 1119.13 ± 2.3 kg/m3 | – | 1.41969 ± 0.00078 | 196.1 ± 0.2 °C | COC(=O)CCC(=O)OC [dimethyl 1,4-butanedioate]
